Experimental data taken from patent US10640545B2 (THE GOVERNORS OF THE UNIVERSITY OF ALBERTA, priority 2017, dated 2020).
Where a SMILES comes first, the peptide text is derived from it. [ ]: non-standard residue; d: D form. Phe(4-Br) = N[C@@H](Cc1ccc(Br)cc1)C(=O)O; NMeL = CN[C@@H](CC(C)C)C(=O)O; Nle = CCCC[C@H](N)C(=O)O; Aib = CC(C)(N)C(=O)O

Tests used:
[1] = target: Recombinant Human Neprilysin (Homo sapiens, UniProt P08473); test: Neprilysin qualitative cleavage assay (MALDI-TOF); settings: rhNEP 2 ng/μL, 37° C., first degradation products by MALDI-TOF
Protocol: Native apelin-17 (2) and apelin peptides 5, 54, 56, 57, 58 and 59 were dissolved in Milli-Q water (1 mM). Recombinant Human Neprilysin (rhNEP, Sino Biological) was reconstituted in Tris buffer (100 mM Tris, 100 mM NaCl, 10 mM ZnCl2, pH 7.5). To initiate the assays, rhNEP was diluted in Tris buffer to a 2 ng/μL final concentration, and pre-incubated at 37° C. for 10 minutes prior to the addition of 5 μL of apelin peptide (1 mM). Aliquots (1 μL) were taken at 1, 2, 4, 6, 12, 24, 36, and 48 hours and analyzed with MALDI-TOF mass spectrometry to qualitatively determine the time point at which degradation products could be observed.

KLKB1 = KLKB1 (Homo sapiens, UniProt P03952); test: In vitro KLKB1 stability (half-life); format: in vitro ADME; set-up: purchased Novoprotein; settings: rhKLKB1, 37° C.
anesthetized mice = test: Blood pressure assay in anesthetized mice; format: in vivo; settings: 1.4 μM/kg body weight injected, SBP, DBP, MABP
Method in brief: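 Mice were anaesthetized with 1.5% isoflurane/oxygen and kept at 36 °C. Peptide (1.4 μM/kg body weight) or saline was injected via the right jugular vein. Arterial pressure and heart rate were recorded continuously through a catheter in the aorta via the right carotid artery over 60 min and reported as SBP, DBP, MABP and HR.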

C57BL/6 mice = test: Cardiac allograft vasculopathy, heterotopic heart transplant; format: in vivo; settings: male hearts into female B6 mice, 3 mg/kg/d intraperitoneal for 4 weeks from 2 weeks after transplant
Protocol: B6 male hearts were transplanted heterotopically into […] female B6 of the recipient mice, starting 2 weeks after transplant. Synthesized apelin peptide (Apelin-NMe17A2) (11), was given by daily intraperitoneal injection (3 mg/kg/d) for 4 weeks. Female mice raise immune response against the male HY antigen, injure the coronary arteries of the transplanted heart based on Verhoeff-Van Gieson staining (FIG. 17) leading to progressive expansion of the arterial intima occluding the arterial lumen (FIG. 18).
C57BL/6J mice were purchased from Jackson Laboratories. The C57BL/6 mice subjected to surgery were 11-14 weeks old. All animal experiments were carried out according to the Canadian Council on Animal Care Guidelines. Animal protocols were approved by the Animal Care and Use Committee at the University of Alberta. Hearts from 12-14 weeks male wild-type (WT) donors were transplanted heterotopically to the abdomen of the female WT recipients. […] Cardiac allograft vasculopathy (CAV) was induced due to the presence of HY-minor histocompatibility antigen-directed, cell-mediated allo-immune response against the male donor hearts. The heart grafts were harvested six weeks after transplantation. Intima area, endothelial loss in medium to large-sized arteries, inflammatory cellular infiltration, microvasculature density and tip cell markers using Immunohistochemistry and qPCR were characterized.

KLKB1, sequence (P03952 20-638): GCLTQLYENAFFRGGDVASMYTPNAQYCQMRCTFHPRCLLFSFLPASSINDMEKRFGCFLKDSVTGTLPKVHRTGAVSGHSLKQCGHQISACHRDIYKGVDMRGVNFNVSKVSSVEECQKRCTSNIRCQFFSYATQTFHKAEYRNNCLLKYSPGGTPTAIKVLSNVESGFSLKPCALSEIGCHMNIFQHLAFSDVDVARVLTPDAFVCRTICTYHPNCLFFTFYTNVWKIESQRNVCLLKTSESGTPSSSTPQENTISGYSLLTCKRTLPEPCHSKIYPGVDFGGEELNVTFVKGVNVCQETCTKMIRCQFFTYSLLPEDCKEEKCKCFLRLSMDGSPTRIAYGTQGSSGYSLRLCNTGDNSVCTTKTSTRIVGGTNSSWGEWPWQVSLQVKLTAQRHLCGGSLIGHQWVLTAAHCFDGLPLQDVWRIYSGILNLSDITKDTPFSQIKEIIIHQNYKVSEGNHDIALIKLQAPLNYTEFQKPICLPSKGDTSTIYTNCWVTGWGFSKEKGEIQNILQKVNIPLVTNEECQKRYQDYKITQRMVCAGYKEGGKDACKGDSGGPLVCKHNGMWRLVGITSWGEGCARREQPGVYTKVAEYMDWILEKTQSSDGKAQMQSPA
Recombinant Human Neprilysin, sequence (P08473 whole entry): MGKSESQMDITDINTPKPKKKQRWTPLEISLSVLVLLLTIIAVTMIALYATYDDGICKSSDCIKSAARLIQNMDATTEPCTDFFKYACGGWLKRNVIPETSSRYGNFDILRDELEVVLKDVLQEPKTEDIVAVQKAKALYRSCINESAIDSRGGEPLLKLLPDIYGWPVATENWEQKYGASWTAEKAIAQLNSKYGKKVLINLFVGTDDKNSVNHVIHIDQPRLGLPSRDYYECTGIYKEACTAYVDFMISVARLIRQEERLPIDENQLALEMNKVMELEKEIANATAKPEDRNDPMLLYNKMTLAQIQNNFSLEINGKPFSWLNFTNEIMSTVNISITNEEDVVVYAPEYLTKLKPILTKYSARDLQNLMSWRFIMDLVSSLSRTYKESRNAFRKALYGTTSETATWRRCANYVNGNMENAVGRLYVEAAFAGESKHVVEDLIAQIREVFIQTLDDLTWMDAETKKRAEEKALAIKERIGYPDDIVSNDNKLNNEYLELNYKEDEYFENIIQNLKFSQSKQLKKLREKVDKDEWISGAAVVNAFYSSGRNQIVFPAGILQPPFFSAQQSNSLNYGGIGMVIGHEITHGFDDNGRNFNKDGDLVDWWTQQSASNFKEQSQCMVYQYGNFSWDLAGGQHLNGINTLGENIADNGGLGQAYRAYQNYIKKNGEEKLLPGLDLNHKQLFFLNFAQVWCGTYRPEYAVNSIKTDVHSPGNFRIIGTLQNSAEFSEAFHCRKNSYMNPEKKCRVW

Degradation Onset Timepoint with NEP [1] [min] | t1/2 (rhKLKB1, h) (KLKB1) [h] | Structure (SMILES) | blood pressure lowering (hypotensive) effect (anesthetized mice) | transplant arteriopathy (intima/lumen of coronary arteries) (C57BL/6 mice)
<30 | 0.4 | CSCC[C@H](NC(=O)[C@@H]1CCCN1C(=O)CNC(=O)[C@H](CCCCN)NC(=O)[C@H](Cc1cnc[nH]1)NC(=O)[C@H](CO)NC(=O)[C@H](CC(C)C)NC(=O)[C@H](CCCNC(=N)N)NC(=O)[C@@H]1CCCN1C(=O)[C@H](CCCNC(=N)N)NC(=O)[C@H](CCC(N)=O)NC(=O)[C@H](CCCNC(=N)N)NC(=O)[C@H](CCCNC(=N)N)NC(=O)[C@H](Cc1ccccc1)NC(=O)[C@@H](N)CCCCN)C(=O)N1CCC[C@H]1C(=O)N[C@@H](Cc1ccccc1)C(=O)O [Peptide 2, reference compound] | – | –
– | – | CCCC[C@H](NC(=O)[C@@H]1CCCN1C(=O)CNC(=O)[C@H](CCCCN)NC(=O)[C@H](Cc1c[nH]cn1)NC(=O)[C@H](CO)NC(=O)[C@H](CC(C)C)N(C)C(=O)[C@H](CCCNC(=N)N)NC(=O)[C@@H]1CCCN1C(=O)[C@H](CCCNC(=N)N)NC(=O)[C@H](CCC(N)=O)NC(=O)[C@H](CCCNC(=N)N)NC(=O)[C@H](CCCNC(=N)N)NC(=O)[C@H](Cc1ccccc1)NC(=O)[C@@H](N)CCCCN)C(=O)NC(C)(C)C(=O)N[C@@H](Cc1ccc(Br)cc1)C(=O)O [Peptide 11] (H-KFRRQRPR[NMeL]SHKGP[Nle][Aib][Phe(4-Br)]-OH; C-terminus assumed) | potent hypotensive activity that rivaled or bested that of native 2 or A2 variant 5 | mitigates arteriopathy
